Measured values from patent publication US11731934B2, “HDAC inhibitor compounds and methods of treatment” (University of Florida Research Foundation, Inc., priority 2014, dated 2023).

Key:
[1] = 50 mg/kg dosed orally, ref (4); cited from earlier work
HCT116 cells [2] = experiment: Western blotting of acetylated histones; format: cell-based; conditions: for Accumulation of acetylated histones: HCT116, 1 h, TSA 0.2 μM, others 2 μM (FIG. 1A); for Inhibition of cellular HDACs (H4K5ac, H3K18ac): HCT116, 0.5 μM, 24 h (FIG. 1B)
HCT116 cells [3] = experiment: H3K18ac after 6 h pulse treatment and drug washout; format: cell-based; conditions: 6 h exposure then washout
HepG2 cells = experiment: Viability assay, with or without HDAC shRNA; format: cell-based; conditions: HepG2, 96 h (FIG. 4A)
[4] = tested on: Ad-MLP-Luc reporter in HCT116 cell line; experiment: Ad-MLP-Luc luciferase reporter activation assay; format: cell-based; conditions: HCT116, compared to Ad-E2-Luc reporter
HDAC1 = HDAC1 (Homo sapiens (Human), UniProt Q13547); experiment: In vitro HDAC1 inhibition assay of HTS hits (HDAC/II-Glo reagents); format: biochemical
HDAC1, sequence (Q13547 whole entry): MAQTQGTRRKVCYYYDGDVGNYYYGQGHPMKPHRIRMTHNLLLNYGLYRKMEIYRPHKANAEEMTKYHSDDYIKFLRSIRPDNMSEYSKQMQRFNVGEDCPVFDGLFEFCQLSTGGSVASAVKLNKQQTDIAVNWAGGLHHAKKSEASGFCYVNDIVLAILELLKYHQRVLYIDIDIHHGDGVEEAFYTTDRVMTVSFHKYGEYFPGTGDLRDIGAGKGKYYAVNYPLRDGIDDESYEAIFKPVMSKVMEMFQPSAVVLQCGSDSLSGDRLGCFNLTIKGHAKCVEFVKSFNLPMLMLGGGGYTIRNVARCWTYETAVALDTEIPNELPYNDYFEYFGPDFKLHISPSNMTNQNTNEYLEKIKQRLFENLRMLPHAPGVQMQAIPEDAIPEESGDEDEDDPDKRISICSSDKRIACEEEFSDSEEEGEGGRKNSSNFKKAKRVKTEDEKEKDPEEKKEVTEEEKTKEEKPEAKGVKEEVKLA

HCT116 and A549 cells = experiment: Western blotting of acetylated non-histone proteins; format: cell-based; conditions: for α-tubulin acetylation: 1 h, TSA 0.2 μM, UF010 2 μM
[5] = tested on: NCI-60 panel of cancer cell lines; experiment: NCI-60 panel screen; format: cell-based
MDA-MB-231 cells [6] = experiment: Cell cycle analysis by FACS; format: cell-based; conditions: 24 h, dose-dependent
MDA-MB-231 cells [7] = experiment: Microarray gene expression profiling with Ingenuity Pathway Analysis; format: cell-based; conditions: 1 μM, 24 h
MDA-MB-231 cells [8] = experiment: Quantitative real-time PCR of CDKN1A (p21); format: cell-based
[9] = Cell-based assays, comparison with entinostat
Source text: Chem Biol. 2015: in press.].

MDA-MB-231 cells [10] = conditions: UF010 at 1 μM

Nc1ccccc1NC(=O)CCCCCC(=O)Nc1ccccc1 [Compound 4b]
Tmax [1]: 15 min

Nc1ccccc1NC(=O)c1ccc(CNC(=O)OCc2cccnc2)cc1 [MS-275, entinostat]
Accumulation of acetylated histones (HCT116 cells [2]): only slightly induced acetylation at several sites but failed to induce acetylation at most sites | Persistence of induced histone acetylation (H3K18ac) after drug addition (HCT116 cells [3]): at least 48 h | Time to induction of histone acetylation (H3K18ac) (HCT116 cells [3]): 18 h

CCCCNNC(=O)c1ccccc1 [RLS2-125, N′-butylbenzohydrazide]
Growth inhibition for HepG2 (HepG2 cells): little to no growth inhibition

CCCCNNC(=O)c1ccc(N(C)C)cc1 [RLS2-131, N′-butyl-4-(dimethylamino)benzohydrazide]
Inhibition of cellular HDACs (H4K5ac, H3K18ac) (HCT116 cells [2]): consistently displayed potent inhibition of cellular HDACs

C/C=C1\NC(=O)[C@H]2CSSCC/C=C/[C@H](CC(=O)N[C@H](C(C)C)C(=O)N2)OC(=O)[C@H](C(C)C)NC1=O [Romidepsin, romidepsin]
Ad-MLP-Luc reporter activity [4]: dramatically increased in a dose-dependent manner | Persistence of induced histone acetylation (H3K18ac) after drug addition (HCT116 cells [3]): up to 24 h | Time to induction of histone acetylation (H3K18ac) (HCT116 cells [3]): quickly induced acetylation

O=C(CCCCCCC(=O)Nc1ccccc1)NO [SAHA, vorinostat, reference compound]
HDAC1 inhibition in vitro, potency (HDAC1): < 10 µM

CC(/C=C/C(=O)NO)=C\[C@@H](C)C(=O)c1ccc(N(C)C)cc1 [TSA, Trichostatin A, reference compound]
Accumulation of acetylated histones (HCT116 cells [2]): strongly induced acetylation at some sites but weakly at other sites | α-tubulin acetylation (HCT116 and A549 cells): dramatically increased α-tubulin acetylation

CCCCNNC(=O)c1ccc(Br)cc1 [UF010, 4-bromo-N′-butylbenzohydrazide]
HDAC1 inhibition in vitro, potency (HDAC1): < 10 µM | Inhibition of cellular HDACs (H4K5ac, H3K18ac) (HCT116 cells [2]): consistently displayed potent inhibition of cellular HDACs | Accumulation of acetylated histones (HCT116 cells [2]): consistently induced the accumulation of acetylated histones at all sites examined | Accumulation of acetylated p53 (HCT116 and A549 cells; 2 μM, after exposure to etoposide 10 μM): induced accumulation of acetylated p53 | p53 stabilization (HCT116 and A549 cells; 2 μM, with or without etoposide treatment): notably stabilized p53 | α-tubulin acetylation (HCT116 and A549 cells): little to no effect | Mode of HDAC inhibition (on/off) (HCT116 cells [3]): fast-on but slow-off inhibitor | Persistence of induced histone acetylation (H3K18ac) after drug addition (HCT116 cells [3]): up to 96 h | Time to induction of histone acetylation (H3K18ac) (HCT116 cells [3]): ≤ 6 h | Inhibition of proliferation, NCI-60 panel [5]: inhibited proliferation of all tested cell lines | Cell cycle effect (MDA-MB-231 cells [6]): mainly blocked G1/S transition | Predicated activation state, Biological Functions: Cell cycle, Cell cycle progression (MDA-MB-231 cells [7]): Suppressed | Predicated activation state, Biological Functions: Cell death and survival, Apoptosis (MDA-MB-231 cells [7]): Activated | Predicated activation state, Biological Functions: Cell death and survival, Cell survival (MDA-MB-231 cells [7]): Suppressed | Predicated activation state, Biological Functions: Cell death and survival, Necrosis (MDA-MB-231 cells [7]): Activated | Predicated activation state, Biological Functions: Cell growth and proliferation, Proliferation of cells (MDA-MB-231 cells [7]): Suppressed | Predicated activation state, Biological Functions: DNA replication, recombination and repair, Repair of DNA (MDA-MB-231 cells [7]): Suppressed | Predicated activation state, Biological Functions: Gene expression, Transcription of RNA (MDA-MB-231 cells [7]): Suppressed | Predicated activation state, Upstream Regulators: Butyric acid (MDA-MB-231 cells [7]): Activated | Predicated activation state, Upstream Regulators: Cisplatin (MDA-MB-231 cells [7]): Activated | Predicated activation state, Upstream Regulators: ERK1/2 (MDA-MB-231 cells [7]): Activated | Predicated activation state, Upstream Regulators: HDAC1 (MDA-MB-231 cells [7]): Suppressed | Predicated activation state, Upstream Regulators: HDAC2 (MDA-MB-231 cells [7]): Suppressed | Predicated activation state, Upstream Regulators: KRAS (MDA-MB-231 cells [7]): Suppressed | Predicated activation state, Upstream Regulators: MYCN (MDA-MB-231 cells [7]): Suppressed | Predicated activation state, Upstream Regulators: Myc (MDA-MB-231 cells [7]): Suppressed | Predicated activation state, Upstream Regulators: Rb1 (MDA-MB-231 cells [7]): Activated | Predicated activation state, Upstream Regulators: Romidepsin (MDA-MB-231 cells [7]): Activated | Predicated activation state, Upstream Regulators: TP53 (MDA-MB-231 cells [7]): Activated | Predicated activation state, Upstream Regulators: Tributyrin (butyrate) (MDA-MB-231 cells [7]): Activated | Predicated activation state, Upstream Regulators: Trichostatin A (MDA-MB-231 cells [7]): Activated | Predicated activation state, Upstream Regulators: fulvestrant (MDA-MB-231 cells [7]): Activated | CDKN1A (p21) expression by qPCR (MDA-MB-231 cells [8]): activation of CDKNA encoding p21 was also confirmed | Potency relative to entinostat in cell-based assays [9]: about 5 fold | Cell migration to the denuded areas (MDA-MB-231 cells [10]): markedly slowed migration
